Experimental data from patent US6310040A, “Treating retinal neuronal disorders by the application of insulin-like growth factors and analogs” (Cephalon, Inc., priority 1992, dated 2001).
Like-named read-outs stand apart in the source and are kept apart here. Non-standard residues stand in square brackets, D forms with d. No end group written: not given here. Tyr(3,5-I2) = N[C@@H](Cc1cc(I)c(O)c(I)c1)C(=O)O

Tests used:
photoreceptor cells = type: cell-based, rat
Protocol: To quantitate this assay, we developed a cell-based Rho42 ELISA test as follows: Several postnatal rat retinal cultures containing different numbers of cells, were incubated for 2-4 days following which cultures were fixed and immunolabelled with either the Rho42 monoclonal antibody, or the nonspecific monoclonal antibody P3, secreted by the myeloma cell line P3X6Ag8. Antibody binding was detected using a secondary antibody labelled with horseradish peroxidase and a chromogenic substrate O-phenylenediamine (OPD), having a maximum absorption wavelength of 490 nm. The level of absorption of light at 490 nm measured in the cultures is therefore directly related to the amount of primary antibody that originally bound to the cells. In FIG. 8 it can be seen that there is a linear relationship between the level of absorption at 490 nm and the number of cells in each culture.
Next, rat retinal neuronal cultures were incubated in the presence of IGF-I or IGF-II (54-67) for 48 hours following which they were subjected to the cell-based ELISA test as described above. Both IGF-I and IGF-II (54-67) promoted the survival of photoreceptor cells by 20-30% compared with control untreated cultures.

[1] = system: postnatal rat retinal neuronal cells; test: calcein-AM survival assay, dissociated postnatal rat retinal neuronal cultures; type: cell-based; conditions: for fluorescence values (total number of cells surviving) versus untreated cultures: peptides 100 uM, postnatal rat retina; for fluorescence values (total number of cells surviving) versus untreated cultures / relative fluorescence units (total number of cells surviving) versus untreated control: 4 days; for relative fluorescence units (total number of cells surviving) versus untreated control: 100 nM, postnatal day 6 rat retina
Protocol: (§1) Retinas were dissected from embryonic chicks, dissociated by enzymatic digestion and cultured in vitro in defined insulin/serum-free medium according to Sato et al. (1979, Proc. Natl. Acad. Sci. USA 76:514-517). The number of cells in culture was measured using the vital stain calcein-AM. All cells are permeable to calcein-AM, but only live cells are capable of converting this compound into a fluorescent derivative detectable by ordinary methods. In the first experiment, calcein-AM (6 μM) was added to different cultures of retinal cells and the relationship between the level of fluorescence and the number of cells was determined.
To determine the concentration of IGF-I required to promote survival of pre- or postnatal retinal neurons in culture, the following experiments were carried out: Retinal neurons were prepared from dissociated retina obtained from 10 day old chick embryos, or from […] postnatal day 6 rats as described above. Cultures were incubated in the presence of increasing concentrations of IGF-I and the number of cells surviving at 48 hours post-treatment was measured in the calcein-AM assay. […] Based upon previously published data, the concentrations of IGF-I that promote neuronal cell survival in our experiments are consistent with the fact that IGF-I is acting through its own receptor (Karey et al., 1988, In Vitro Cell. Dev. Biol. 24:1107-1113; Ballard et al., 1988, Biochem. J. 249:721-726).
To determine whether retinal survival could be enhanced when incubated in the presence of functional derivatives of IGF-I and IGF-II, a linear fragment of IGF-II that is relatively conserved within both IGF-I and IGF-II, was tested in our assay. The fragment contained a sequence of 14 amino acids from IGF-II (amino acids 54-67, wherein the amino terminal amino acid of IGF-II is number 1).
To determine whether IGF-I, IGF-II, and IGF-III can promote the survival of retinal neuronal cells, dissociated cultures of postnatal rat retina were prepared and assayed for the total number of cells present after incubation in the presence or absence of IGFs. Retinas were dissected from postnatal day 6 rats, dissociated by enzymatic digestion and seeded at a density of 6.25×10^4 cells/cm^2 in defined insulin/serum-free media (Bottenstein et al., 1979, PNAS 76:514-517). These cultures are heterogenous, comprised of at least five independent retinal neuronal cell subpopulations, i.e., amacrine, bipolar, horizontal, photoreceptor and ganglion cells. Cultures were incubated in the presence or absence of 100 nM of each of the IGFs. The total number of cells remaining after 4 days was assayed by incubation with the vital stain calcein-AM at 6 uM. This compound is taken up by all cells but can only be converted to a fluorescent derivative by live cells.
To determine whether linear peptide derivatives of IGFs can support the survival of retinal neuronal cells, dissociated cultures of postnatal rat retina were prepared and assayed for the total number of cells present after incubation in the presence or absence of peptides (100 uM). Retinal neuronal cell cultures were prepared as described in Example 11 and the total number of cells surviving analyzed analogously. Peptides were derived from the amino acid regions 7-30 and 55-70 of IGF-I and […] and the region within IGF-II, amino acids 54-67.

retinal neuronal cells = test: calcein-AM survival assay, dissociated embryonic chick retinal cultures; type: cell-based; conditions: 48 hours post-treatment
Protocol: To determine whether IGF-1 acts to promote survival of retinal neuronal cells, dissociated cultures of avian retina were prepared from animals at various developmental ages and the number of cells present in the cultures, following incubation for 48 hours in the presence or absence of IGF-I, was measured.
as §1
In the next experiment, IGF-I was added to half of the cultures at a final concentration of 100 nM, and the number of cells remaining at 48 hours post-treatment was measured using the calcein-AM assay described above. […]

retinal neurons = test: retinal neurite regeneration, phase contrast microscopy; type: cell-based; conditions: 100 nM, 2-4 days following treatment, insulin/serum-free media
Protocol: To determine whether IGF-I affects retinal neurite regeneration, a population of neurons prepared from dissociated retina was cultured in defined insulin/serum-free media in the presence or absence of 100 nM IGF-I. Cultures were examined by phase contrast microscopy at 2-4 days following IGF-I treatment.

[2] = system: photoreceptor subpopulation of cells; test: Rho42 antibody fluorescence staining of postnatal rat retinal neuronal cultures; type: cell-based; conditions: 100 nM, 48 hours
Protocol: To determine whether IGF-I or IGF-II (54-67) could specifically promote survival of the photoreceptor subpopulation of cells in rat retinal neuronal cultures, the following experiments were carried out: The monoclonal antibody Rho42, which binds to an antigenic epitope within the extracellular domain of rhodopsin expressed on the surface of rod photoreceptor cells (Molday and MacKenzie, 1983, Biochemistry 22:653), was used in this assay. Postnatal rat retinal neuronal cultures were incubated in the presence or absence of 100 nM of IGF-I for 48 hours. Cells were harvested and reacted with Rho42 to which a fluorescent label had been added. Slides were prepared and the level of fluorescence in the cultures was qualitatively assessed using a fluorescence microscope.

Compound: CC(C)C[C@H](NC(=O)[C@H](C)N)C(=O)N[C@@H](CC(C)C)C(=O)N[C@@H](CCC(=O)O)C(=O)N[C@H](C(=O)N[C@@H](Cc1ccc(O)cc1)C(=O)N[C@@H](CS)C(=O)N[C@@H](C)C(=O)N[C@H](C(=O)N1CCC[C@H]1C(=O)N[C@@H](C)C(=O)N[C@@H](CCCCN)C(=O)N[C@@H](CO)C(=O)N[C@@H](CCC(=O)O)C(=O)O)[C@@H](C)O)[C@@H](C)O [IGF-II (54-67), ALLETYCATPAKSE]
- promoted survival of photoreceptor cells compared with control untreated cultures (photoreceptor cells; 48 h): 20-30%

Compound: CAPAKSE
- fluorescence values (total number of cells surviving) versus untreated cultures [1]: higher fluorescence values than untreated cultures

Compound: CATPAKSE
- fluorescence values (total number of cells surviving) versus untreated cultures [1]: higher fluorescence values than untreated cultures

Compound: EALLETYCATPAKSE
- fluorescence values (total number of cells surviving) versus untreated cultures [1]: higher fluorescence values than untreated cultures

Compound: GAELVDALQFVSGDRGFYFNKPTG (GAELVDALQFYSGDRGFYFNKPTG)
- fluorescence values (total number of cells surviving) versus untreated cultures [1]: higher fluorescence values than untreated cultures

Compound: IGF-I: Recombinant human insulin-like growth factor I (somatomedin C), 70 amino acids, SEQ ID NO:1
- enhanced survival of cells compared to control, untreated cultures (retinal neuronal cells; 100 nM, retinal cultures from embryos at 8, 10, 12 and 14 days of age): 20-60%
- survival of prenatal retinal neurons versus concentration (retinal neuronal cells; 10 day old chick embryos, increasing concentrations): promote survival of retinal neurons in culture in a dose-dependent manner
- relative fluorescence units (total number of cells surviving) versus untreated control [1]: higher than that found for untreated control cultures
- survival of postnatal retinal neurons versus concentration ([1]; postnatal day 6 rats, increasing concentrations, 48 hours post-treatment): promote survival of retinal neurons in culture in a dose-dependent manner
- cells with neurites (axonal regeneration) (retinal neurons): more cells with neurites than untreated control cultures
- level of Rho42 fluorescence (photoreceptor survival), qualitative [2]: increased level of fluorescence compared to untreated cultures
- promoted survival of photoreceptor cells compared with control untreated cultures (photoreceptor cells; 48 hours, rat retinal neuronal cultures): 20-30%

Compound: IGF-II: Recombinant human insulin-like growth factor II, 67 amino acids, SEQ ID NO:16
- relative fluorescence units (total number of cells surviving) versus untreated control [1]: higher than that found for untreated control cultures

Compound: IGF-III: truncated form of IGF-I lacking the three N-terminal amino acid residues, SEQ ID NO:2
- relative fluorescence units (total number of cells surviving) versus untreated control [1]: higher than that found for untreated control cultures

Compound: TY(I2)CAPAKSE (T[Tyr(3,5-I2)]CAPAKSE) [iodinated TYCAPAKSE]
- fluorescence values (total number of cells surviving) versus untreated cultures [1]: higher fluorescence values than untreated cultures

Compound: TYCAPA
- fluorescence values (total number of cells surviving) versus untreated cultures [1]: higher fluorescence values than untreated cultures

Compound: YCAPA
- fluorescence values (total number of cells surviving) versus untreated cultures [1]: higher fluorescence values than untreated cultures
